# Test results taken from ChEMBL document CHEMBL1132859, “Role of the hydrophobic moiety of tumor promoters. Synthesis and activity of 2-alkylated benzolactams” (Bioorg Med Chem Lett, 2000).
# Key:
# HL-60 = assay: Compound was evaluated for its effective dose against HL-60 cells; format: functional; settings: Homo sapiens, read-out: ED50 (the source's name)
# [1] = target: Protein kinase C delta type (Homo sapiens, UniProt Q05655); assay: Binding affinity for human recombinant protein kinase C delta
# Chain of Protein kinase C delta type (Q05655 whole entry): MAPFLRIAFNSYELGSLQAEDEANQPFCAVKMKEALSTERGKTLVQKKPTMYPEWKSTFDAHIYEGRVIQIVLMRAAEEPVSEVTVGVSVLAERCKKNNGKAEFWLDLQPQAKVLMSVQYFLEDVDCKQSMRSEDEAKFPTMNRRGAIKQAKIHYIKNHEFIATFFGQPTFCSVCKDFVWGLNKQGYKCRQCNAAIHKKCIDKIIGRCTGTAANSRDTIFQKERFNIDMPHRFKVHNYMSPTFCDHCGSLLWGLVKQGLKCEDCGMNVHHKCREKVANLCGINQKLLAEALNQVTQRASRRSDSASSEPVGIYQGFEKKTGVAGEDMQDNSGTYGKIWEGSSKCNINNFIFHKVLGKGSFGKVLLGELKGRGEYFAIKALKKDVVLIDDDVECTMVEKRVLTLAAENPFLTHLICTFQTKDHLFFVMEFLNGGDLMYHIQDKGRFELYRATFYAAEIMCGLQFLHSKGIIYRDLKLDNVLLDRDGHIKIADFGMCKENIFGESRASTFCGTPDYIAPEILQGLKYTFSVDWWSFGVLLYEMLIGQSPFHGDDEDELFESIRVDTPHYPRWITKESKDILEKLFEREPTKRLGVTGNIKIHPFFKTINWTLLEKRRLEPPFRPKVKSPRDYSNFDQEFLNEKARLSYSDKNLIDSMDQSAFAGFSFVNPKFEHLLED
EC50 (HL-60) [nM],Compound,Ki [1] [nM]
70,CCCCCCCCCCCCCCCCCCCC[C@H]1C(=O)N[C@H](CO)Cc2ccccc2N1C,> 1000
,CCCCCCCCCC[C@H]1C(=O)N[C@H](CO)Cc2ccccc2N1C,0.8
,CCCCCCCCCCCC[C@H]1C(=O)N[C@H](CO)Cc2ccccc2N1C,0.8
,CCCCCCCCCCCCCC[C@H]1C(=O)N[C@H](CO)Cc2ccccc2N1C,0.8
